The test system of test [1] is Occludin. Nature of the test: Western blotting of Occludin, cortex of ischemic penumbra. Type of test: in vivo, C57BL/6 mice. The note with it: brain tissue 24 hours after administration, sham = 1.00; tPA 10 mg/kg alone; T541 20 mg/kg + tPA 10 mg/kg. As to the method: (§1) After reperfused for 24 hours, mice were perfused by normal saline; Western blotting analysis was conducted to the penumbra field of infarcted right cerebral cortex. After perfused, mice brain tissue was taken out; cerebellum and prefrontal lobe were cut off; the brain tissue of right brain close to 1 cm of the central joint of left and right hemispheres along the sagittal view; infarcted penumbra field of the rest tissues was cut off along an 45° angle; the cerebral cortex of the penumbra field was peeled off and preserved at low temperature. Right cerebral cortex was taken and added 1×RIPA lysate and a Cocktail protease inhibitor (1:100, Cell Signaling Technology, US) for full pyrolysis and ultrasonic treatment, and then 17000 g were centrifuged for 30 minutes. Supernatant was taken and added 5×loading buffer by volume, boiled for 20 minutes in boiling water, and then preserved at −80° C. Excessive supernatant was taken out and quantified by a BCA protein quantification liquor (ThermoScientific, US) to measure absorbance value at 560 nm of ELIASA and to calculate the protein concentration according to a standard curve. […] The density of electrophoretic strips was analyzed by an image analysis software Quantityone. […]

The test system of test [2] is JAM-1. Briefly: Western blotting of JAM-1, endothelial cells after hypoxia/reoxygenation. Type of test: cell-based. The following applies: rat brain endothelial cells, hypoxia 4.5 h/reoxygenation 3 h; tPA 20 mcg/ml alone (model group); T541 400 mcg/ml + tPA 20 mcg/ml. An excerpt: Establishment of rat brain endothelial cell H/R model: rat brain endothelial cells were purchased from ATCC, and then subcultured to 5-6 generations in normal conditions for further experiment. […]
For orientation: In western blotting, separated proteins are transferred to a membrane and probed.

Test [3] relates to ATP5D. Nature of the test: ATP5D content in brain tissue. The note with it: brain tissue 24 hours after administration, sham = 1.00; tPA 10 mg/kg alone; T541 20 mg/kg + tPA 10 mg/kg. Format: in vivo, C57BL/6 mice. As to the method:
as §1

In test [4] the test system is Collagen IV. Nature of the test: Western blotting of Collagen IV, basement membrane. Type of test: in vivo, C57BL/6 mice. The note with it: brain tissue 24 hours after administration, sham = 1.00; tPA 10 mg/kg alone; T541 20 mg/kg + tPA 10 mg/kg. As for the experimental part:
as §1

Here are results for one substance from patent US20210038668A1, “TRADITIONAL CHINESE MEDICINE COMPOSITION FOR PREVENTING AND/OR TREATING ISCHEMIC REPERFUSION INJURY” (TASLY PHARMACEUTICAL GROUP CO., LTD., priority 2018, published 2021).

Turning to “tPA: tissue-type plasminogen activator (tPA) for thrombolysis”, in test [1], the Occludin/β-actin is 0.38 ± 0.02. Besides, the JAM-1/β-actin in test [2] worked out at 0.64 ± 0.05. The ATP5D in test [3] was found to be 0.71 ± 0.05. Besides, in test [4], the “Collagen IV content” value amounted to 0.68 ± 0.04.
